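In this assay, cells in 96-well plates receive the compound at five concentrations for 48 hours. Endpoints are linearly interpolated between the surrounding concentrations. At the TGI there is no net growth.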 Where a SMILES comes first, the peptide text is derived from it. Bridges are numbered along the chain shown (N, C = ends).

Experimental findings from PubChem BioAssay (NCI) are described below.

Among the test systems are A549 NSCLC; BT-549 breast; DU-145 prostate; HOP-92 NSCLC; LOX IMVI melanoma; NCI-H522 lung; OVCAR-4 ovarian; SK-MEL-28 melanoma; SW-620 colon; SF-539 CNS.
Assay in all cases: NCI tumour cell line growth inhibition, 48 h

As to `COc1c(NC(C)=O)c2ccccc2c2ccccc12`, the TGI with A549 NSCLC, with BT-549 breast, in the test on DU-145 prostate, in the test with HOP-92 NSCLC, with LOX IMVI melanoma and in the test on NCI-H522 lung was greater than 100 µM each time. In addition, the TGI in the test on OVCAR-4 ovarian, with SK-MEL-28 melanoma and in the test with SW-620 colon was greater than 100 µM each time.

In the case of `COc1ccc(-c2c(/C=N/OCC(=O)O)c3sc4ccccc4n3c2/C=N/OCC(=O)O)cc1`, the TGI in the test on A549 NSCLC, in the test with BT-549 breast, with DU-145 prostate, with HOP-92 NSCLC, in the test on LOX IMVI melanoma and in the test on NCI-H522 lung was greater than 50 µM each time. In addition, the TGI in the test on OVCAR-4 ovarian, with SK-MEL-28 melanoma and in the test with SW-620 colon was greater than 50 µM throughout.

With `CC(C)(C)N=C1C(=O)C2(C)CCC1C2(C)C` (centres undefined), the TGI in the test with A549 NSCLC, with BT-549 breast, with DU-145 prostate, in the test on LOX IMVI melanoma, with OVCAR-4 ovarian and in the test with SF-539 CNS was greater than 100 µM each time. Also, the TGI in the test with SK-MEL-28 melanoma and in the test with SW-620 colon was greater than 100 µM each time.

As for `COc1ccc(/C=C/C(=O)c2cc(CN(C)C)c(O)c(CN(C)C)c2)cc1`, the TGI with A549 NSCLC was greater than 100 µM; in the test on BT-549 breast it was 72.9 µM; in the test on DU-145 prostate it was greater than 100 µM; with LOX IMVI melanoma, 31.9 µM; with NCI-H522 lung, 43.2 µM; in the test on SF-539 CNS it was greater than 100 µM. Besides, the TGI in the test on SK-MEL-28 melanoma and with SW-620 colon was greater than 100 µM throughout.

On to `Cc1cc(NS(=O)(=O)c2ccc(Nc3c4ccccc4nc4c(C(=O)NC(CO)(CO)CO)cccc34)cc2)no1`, for which the TGI in the test on A549 NSCLC was greater than 100 µM; in the test on BT-549 breast, 98.9 µM; with DU-145 prostate, greater than 100 µM; in the test with HOP-92 NSCLC, greater than 100 µM; in the test on LOX IMVI melanoma it was 43.1 µM; in the test with NCI-H522 lung, 34.4 µM. For the same molecule, the TGI with OVCAR-4 ovarian, in the test with SK-MEL-28 melanoma and in the test with SW-620 colon was greater than 100 µM each time.

Take `CNCC(SC)c1ccc(O)c(O)c1` (centres undefined): the TGI with A549 NSCLC was greater than 100 µM; in the test on BT-549 breast, 31 µM; in the test on DU-145 prostate it was 37.4 µM; in the test on HOP-92 NSCLC, 39.3 µM; with LOX IMVI melanoma, 84.9 µM; with NCI-H522 lung it was 34.5 µM. Also, the TGI in the test with OVCAR-4 ovarian was 32.5 µM; in the test on SK-MEL-28 melanoma, greater than 100 µM; in the test on SW-620 colon it was 46.9 µM.

Take `Cc1ccc(N=Nc2c(O)ccc3ccccc23)c(C)c1`: the TGI in the test with A549 NSCLC, with BT-549 breast, in the test with DU-145 prostate, with HOP-92 NSCLC, with LOX IMVI melanoma and with OVCAR-4 ovarian was greater than 100 µM in each case. The TGI in the test with SK-MEL-28 melanoma and in the test with SW-620 colon was greater than 100 µM in each case.

Consider `Cc1cccc(NC(=S)Nc2cccc(Cl)c2)n1`, for which the TGI in the test with A549 NSCLC, in the test on BT-549 breast, with DU-145 prostate, in the test with LOX IMVI melanoma, with NCI-H522 lung and in the test on OVCAR-4 ovarian was greater than 100 µM in each case. Also, the TGI in the test with SF-539 CNS, with SK-MEL-28 melanoma and in the test on SW-620 colon was greater than 100 µM each time.

In the case of `COC(=O)C1CCC(=O)NCCCCC(NC(=O)C(N)CC(=O)O)C(=O)N1` (stereo not drawn) (H-Asp-Lys-Glu-OMe; lactam 2-3; configuration not given here), the TGI in the test on A549 NSCLC, with BT-549 breast, in the test on DU-145 prostate, in the test on LOX IMVI melanoma, in the test with NCI-H522 lung and in the test on OVCAR-4 ovarian was greater than 100 µM in each case. In addition, the TGI in the test with SF-539 CNS, in the test with SK-MEL-28 melanoma and in the test with SW-620 colon was greater than 100 µM throughout.

As for `CC12CC(c3ccccc3O1)C(C(=O)Nc1nccs1)C(=O)N2` (centres undefined), the TGI in the test with A549 NSCLC, in the test on BT-549 breast, with DU-145 prostate, with HOP-92 NSCLC, in the test on LOX IMVI melanoma and with NCI-H522 lung was greater than 100 µM throughout. Further, the TGI with OVCAR-4 ovarian, in the test on SK-MEL-28 melanoma and with SW-620 colon was greater than 100 µM each time.

Consider `COc1ccc(Cn2c(=O)c(OS(=O)(=O)C(F)(F)F)c(C)c3cc4ccccc4cc32)cc1`, for which the TGI with A549 NSCLC, in the test with BT-549 breast, in the test with DU-145 prostate, with LOX IMVI melanoma, with NCI-H522 lung and in the test on OVCAR-4 ovarian was greater than 100 µM throughout. For the same molecule, the TGI in the test on SF-539 CNS, with SK-MEL-28 melanoma and with SW-620 colon was greater than 100 µM throughout.

With `CCC1OC2(C)CC(C#N)(C#N)C1(C#N)C(=N)O2` (centres undefined), the TGI in the test with A549 NSCLC, in the test on BT-549 breast, in the test on DU-145 prostate, in the test on HOP-92 NSCLC, in the test on LOX IMVI melanoma and in the test with SF-539 CNS was greater than 100 µM throughout. The TGI with SK-MEL-28 melanoma and in the test with SW-620 colon was greater than 100 µM in each case.
